1 compound from publication PMC5218480 (PLoS ONE, 2017) can be followed below.

This test concerns MV-4-11 cells. As to the kind of experiment: Gene expression microarray analysis (Affymetrix PrimeView) and GSEA. On the set-up: RFU PODN (11730768_x_at) / Fold change /veh PODN (11730768_x_at) / RFU LINC00158 (11744669_a_at) / Fold change /veh LINC00158 (11744669_a_at) / RFU DUSP10 (11751237_a_at) / Fold change /veh DUSP10 (11751237_a_at) / RFU ID3 (11757404_x_at) / Fold change /veh ID3 (11757404_x_at) / RFU PLEKHG5 (11737974_s_at) / Fold change /veh PLEKHG5 (11737974_s_at) / RFU LRRC4B (11730491_at) / Fold change /veh LRRC4B (11730491_at) / RFU GIMAP4 (11747438_a_at) / Fold change /veh GIMAP4 (11747438_a_at) / RFU KRT8 (11758183_x_at) / Fold change /veh KRT8 (11758183_x_at) / RFU CNN1 (11734310_a_at) / Fold change /veh CNN1 (11734310_a_at) / RFU VPS37D (11726825_at) / Fold change /veh VPS37D (11726825_at) / RFU C10orf10 (11716522_x_at) / Fold change /veh C10orf10 (11716522_x_at) / RFU KIR2DL2 /// KIR2DL4 /// KIR2DL5A /// KIR2DL5B /// KIR2DS1 /// KIR2DS2 /// KIR2DS3 /// KIR2DS4 /// KIR3DL3 /// KIR3DL3 /// KIR3DS1 (11738374_at) / Fold change /veh KIR2DL2 /// KIR2DL4 /// KIR2DL5A /// KIR2DL5B /// KIR2DS1 /// KIR2DS2 /// KIR2DS3 /// KIR2DS4 /// KIR3DL3 /// KIR3DL3 /// KIR3DS1 (11738374_at) / RFU C1QL1 (11718748_at) / Fold change /veh C1QL1 (11718748_at) / RFU TMPRSS4 (11747572_a_at) / Fold change /veh TMPRSS4 (11747572_a_at) / RFU HAMP (11756126_x_at) / Fold change /veh HAMP (11756126_x_at) / RFU RNFT2 (11725882_a_at) / Fold change /veh RNFT2 (11725882_a_at) / RFU NR4A2 (11747474_a_at) / Fold change /veh NR4A2 (11747474_a_at) / RFU ABCC12 (11746883_a_at) / Fold change /veh ABCC12 (11746883_a_at) / RFU TMEM136 (11760407_x_at) / Fold change /veh TMEM136 (11760407_x_at) / RFU CLDN22 /// WWC2 (11732394_at) / Fold change /veh CLDN22 /// WWC2 (11732394_at) / RFU HLA-DPB1 (11760878_x_at) / Fold change /veh HLA-DPB1 (11760878_x_at) / RFU SPINT1 (11716480_a_at) / Fold change /veh SPINT1 (11716480_a_at) / RFU GAP43 (11754022_s_at) / Fold change /veh GAP43 (11754022_s_at) / RFU A4GNT (11735810_at) / Fold change /veh A4GNT (11735810_at) / RFU PRB3 (11715151_x_at) / Fold change /veh PRB3 (11715151_x_at) / RFU TUBB4B (11761932_at) / Fold change /veh TUBB4B (11761932_at) / RFU CAPN14 (11732068_a_at) / Fold change /veh CAPN14 (11732068_a_at) / RFU TMCC2 (11721928_a_at) / Fold change /veh TMCC2 (11721928_a_at) / RFU IRGQ (11745062_a_at) / Fold change /veh IRGQ (11745062_a_at) / RFU FAM174B (11720279_a_at) / Fold change /veh FAM174B (11720279_a_at) / RFU TMPRSS4 (11748680_a_at) / Fold change /veh TMPRSS4 (11748680_a_at) / RFU FAM212B (11763350_a_at) / Fold change /veh FAM212B (11763350_a_at) / RFU PLEKHG5 (11743358_a_at) / Fold change /veh PLEKHG5 (11743358_a_at) / RFU ZSCAN30 (11745921_a_at) / Fold change /veh ZSCAN30 (11745921_a_at) / RFU CMKLR1 (11741424_a_at) / Fold change /veh CMKLR1 (11741424_a_at) / RFU LOC101060620 /// MAPK8IP1 (11723275_at) / Fold change /veh LOC101060620 /// MAPK8IP1 (11723275_at) / RFU SPTSSB (11747773_x_at) / Fold change /veh SPTSSB (11747773_x_at) / RFU PRSS12 (11739890_at) / Fold change /veh PRSS12 (11739890_at) / RFU BIN1 (11741810_x_at) / Fold change /veh BIN1 (11741810_x_at) / RFU WNT11 (11732464_a_at) / Fold change /veh WNT11 (11732464_a_at) / RFU C10orf10 (11716521_a_at) / Fold change /veh C10orf10 (11716521_a_at) / RFU C5orf56 (11738089_at) / Fold change /veh C5orf56 (11738089_at) / RFU CYB561 (11721691_x_at) / Fold change /veh CYB561 (11721691_x_at) / RFU ANKRD19P (11752326_a_at) / Fold change /veh ANKRD19P (11752326_a_at) / RFU OR2T12 /// OR2T33 /// OR2T8 (11738714_s_at) / Fold change /veh OR2T12 /// OR2T33 /// OR2T8 (11738714_s_at) / RFU VCAN (11748164_a_at) / Fold change /veh VCAN (11748164_a_at) / RFU JSRP1 (11732532_at) / Fold change /veh JSRP1 (11732532_at) / RFU KRTAP10-11 (11738290_x_at) / Fold change /veh KRTAP10-11 (11738290_x_at) / RFU MYO3A (11730013_a_at) / Fold change /veh MYO3A (11730013_a_at) / RFU EBF3 (11725865_a_at) / Fold change /veh EBF3 (11725865_a_at) / RFU CAMK2N1 (11719241_x_at) / Fold change /veh CAMK2N1 (11719241_x_at) / RFU C5orf56 (11738088_a_at) / Fold change /veh C5orf56 (11738088_a_at) / RFU OLFML3 (11715873_a_at) / Fold change /veh OLFML3 (11715873_a_at) / RFU LOC100653217 /// NTM (11731650_a_at) / Fold change /veh LOC100653217 /// NTM (11731650_a_at) / RFU MAPK11 (11762145_a_at) / Fold change /veh MAPK11 (11762145_a_at) / RFU FIZ1 (11724087_x_at) / Fold change /veh FIZ1 (11724087_x_at) / RFU OASL (11726364_x_at) / Fold change /veh OASL (11726364_x_at) / RFU SOX15 (11748057_x_at) / Fold change /veh SOX15 (11748057_x_at) / RFU CD79A (11719716_a_at) / Fold change /veh CD79A (11719716_a_at) / RFU HIST1H1D (11736915_at) / Fold change /veh HIST1H1D (11736915_at) / RFU CASKIN2 (11723855_a_at) / Fold change /veh CASKIN2 (11723855_a_at) / RFU LOC730098 (11760151_x_at) / Fold change /veh LOC730098 (11760151_x_at) / RFU OR4N2 (11742367_at) / Fold change /veh OR4N2 (11742367_at) / RFU PRRT2 (11749266_a_at) / Fold change /veh PRRT2 (11749266_a_at) / RFU SNX32 (11753110_a_at) / Fold change /veh SNX32 (11753110_a_at) / RFU CDHR5 (11726645_a_at) / Fold change /veh CDHR5 (11726645_a_at) / RFU RCAN1 (11760418_a_at) / Fold change /veh RCAN1 (11760418_a_at) / RFU FAM167A (11723789_a_at) / Fold change /veh FAM167A (11723789_a_at) / RFU FAM26E (11764081_at) / Fold change /veh FAM26E (11764081_at) / RFU ISYNA1 (11749810_s_at) / Fold change /veh ISYNA1 (11749810_s_at) / RFU ACY1 (11761880_at) / Fold change /veh ACY1 (11761880_at) / RFU 11764098_at / Fold change /veh 11764098_at / RFU SAMD14 (11745864_x_at) / Fold change /veh SAMD14 (11745864_x_at) / RFU NPB (11741838_a_at) / Fold change /veh NPB (11741838_a_at) / RFU TMPRSS6 (11731388_a_at) / Fold change /veh TMPRSS6 (11731388_a_at) / RFU KRTAP10-2 (11738614_at) / Fold change /veh KRTAP10-2 (11738614_at) / RFU ARHGAP8 /// PRR5-ARHGAP8 (11727945_x_at) / Fold change /veh ARHGAP8 /// PRR5-ARHGAP8 (11727945_x_at) / RFU KRTAP5-7 /// NADSYN1 (11734609_at) / Fold change /veh KRTAP5-7 /// NADSYN1 (11734609_at) / RFU RASL12 (11751679_a_at) / Fold change /veh RASL12 (11751679_a_at) / RFU CDKN2B (11736163_a_at) / Fold change /veh CDKN2B (11736163_a_at) / RFU PRF1 (11729649_at) / Fold change /veh PRF1 (11729649_at) / RFU, ZNF638 /// ZNF638-IT1 / Fold change vs veh, ZNF638 /// ZNF638-IT1 / RFU, PANK3 / Fold change vs veh, PANK3 / RFU, SH3YL1 / Fold change vs veh, SH3YL1 / RFU, ZEB2 / Fold change vs veh, ZEB2 / RFU, NRIP1 / Fold change vs veh, NRIP1 / RFU, PTTG1IP / Fold change vs veh, PTTG1IP / RFU, CAPN2 / Fold change vs veh, CAPN2 / RFU, MED14 / Fold change vs veh, MED14 / RFU, SNORA58 / Fold change vs veh, SNORA58 / RFU, C1orf63 / Fold change vs veh, C1orf63 / RFU, LRRFIP1 / Fold change vs veh, LRRFIP1 / RFU, NDUFAF7 / Fold change vs veh, NDUFAF7 / RFU, SLC12A2 / Fold change vs veh, SLC12A2 / RFU, IBTK / Fold change vs veh, IBTK / RFU, ESF1 / Fold change vs veh, ESF1 / Fold change vs veh, TMEM50B / RFU, TAOK1 / Fold change vs veh, TAOK1 / RFU, ACBD3 / Fold change vs veh, ACBD3 / RFU, TMA16 / Fold change vs veh, TMA16 / RFU, RWDD3 / Fold change vs veh, RWDD3 / RFU, BCAT1 / Fold change vs veh, BCAT1 / RFU, EDEM3 / Fold change vs veh, EDEM3 / RFU, TMEM33 / Fold change vs veh, TMEM33 / RFU, WDR75 / Fold change vs veh, WDR75 / RFU, AHCTF1 / Fold change vs veh, AHCTF1 / RFU, TFRC / Fold change vs veh, TFRC / RFU, ZDHHC17 / Fold change vs veh, ZDHHC17 / RFU, NOM1 / Fold change vs veh, NOM1 / RFU, ARL8B / Fold change vs veh, ARL8B / RFU, ZBTB11 / Fold change vs veh, ZBTB11 / RFU, TAMM41 / Fold change vs veh, TAMM41 / RFU, KIAA1704 /// LOC100996395 / Fold change vs veh, KIAA1704 /// LOC100996395 / RFU, ING1 / Fold change vs veh, ING1 / RFU, TRMT61B / Fold change vs veh, TRMT61B / RFU, FUBP3 / Fold change vs veh, FUBP3 / RFU, TP53 / Fold change vs veh, TP53 / RFU, TNKS2 / Fold change vs veh, TNKS2 / RFU, ZFP14 / Fold change vs veh, ZFP14 / RFU, ACTR2 / Fold change vs veh, ACTR2 / RFU, PPP3R1 / Fold change vs veh, PPP3R1 / RFU, PIK3R1 / Fold change vs veh, PIK3R1 / RFU, HNRNPA1 / Fold change vs veh, HNRNPA1 / RFU, RNF170 / Fold change vs veh, RNF170 / RFU, ZNF28 / Fold change vs veh, ZNF28 / RFU, RNGTT / Fold change vs veh, RNGTT / RFU, OGT / Fold change vs veh, OGT / RFU, BRD1 / Fold change vs veh, BRD1 / RFU, MARS / Fold change vs veh, MARS / RFU, ZNF655 / Fold change vs veh, ZNF655 / RFU, FAHD1 / Fold change vs veh, FAHD1 / RFU, BDP1 / Fold change vs veh, BDP1 / RFU, LRRCC1 / Fold change vs veh, LRRCC1 / RFU, ARID1A / Fold change vs veh, ARID1A / RFU, ZNF146 / Fold change vs veh, ZNF146 / RFU, ZNF330 / Fold change vs veh, ZNF330 / RFU, GPN3 / Fold change vs veh, GPN3 / RFU, C9orf123 / Fold change vs veh, C9orf123 / RFU, N4BP2L2 / Fold change vs veh, N4BP2L2 / RFU, ARFIP1 / Fold change vs veh, ARFIP1 / RFU, FAM179B / Fold change vs veh, FAM179B / RFU, BCL10 / Fold change vs veh, BCL10 / RFU, UHRF1BP1L / Fold change vs veh, UHRF1BP1L / RFU, BET1 / Fold change vs veh, BET1 / RFU, CNOT2 / Fold change vs veh, CNOT2 / RFU, ZNF268 / Fold change vs veh, ZNF268 / Fold change vs veh, ZNF507 / RFU, DGCR2 / Fold change vs veh, DGCR2 / RFU, WDSUB1 / Fold change vs veh, WDSUB1 / Fold change vs veh, HSP90B1 /// MIR3652 / RFU, ADSS / Fold change vs veh, ADSS / RFU, GK / Fold change vs veh, GK / RFU, ZNF148 / Fold change vs veh, ZNF148 / RFU, TAF9 / Fold change vs veh, TAF9 / RFU, SLC1A5 / Fold change vs veh, SLC1A5 / RFU, SLMO2 / Fold change vs veh, SLMO2 / RFU, ABCC4 / Fold change vs veh, ABCC4 / RFU, LOC101060439 /// RAP1B / Fold change vs veh, LOC101060439 /// RAP1B / RFU, RFX7 / Fold change vs veh, RFX7 / RFU, GTPBP10 / Fold change vs veh, GTPBP10 / RFU, CNEP1R1 / Fold change vs veh, CNEP1R1 / RFU, BIVM-ERCC5 /// ERCC5 / Fold change vs veh, BIVM-ERCC5 /// ERCC5 / RFU, ILF3 / Fold change vs veh, ILF3 / RFU 11762660_at / Fold change /veh 11762660_at / RFU VCAN (11757783_s_at) / Fold change /veh VCAN (11757783_s_at) / RFU DDX43 (11728927_at) / Fold change /veh DDX43 (11728927_at) / RFU KRT8 (11758188_x_at) / Fold change /veh KRT8 (11758188_x_at) / RFU NKD1 (11759106_at) / Fold change /veh NKD1 (11759106_at) / RFU SRD5A1 (11742802_a_at) / Fold change /veh SRD5A1 (11742802_a_at) / RFU TPSAB1 /// TPSB2 (11721975_s_at) / Fold change /veh TPSAB1 /// TPSB2 (11721975_s_at) / RFU GSTM3 (11746129_a_at) / Fold change /veh GSTM3 (11746129_a_at) / RFU IL23R (11737362_x_at) / Fold change /veh IL23R (11737362_x_at) / RFU TMEM51 (11727254_a_at) / Fold change /veh TMEM51 (11727254_a_at) / RFU PIWIL2 (11732686_x_at) / Fold change /veh PIWIL2 (11732686_x_at) / RFU ORM1 (11744905_x_at) / Fold change /veh ORM1 (11744905_x_at) / RFU CCDC152 (11743942_at) / Fold change /veh CCDC152 (11743942_at) / RFU ECM1 (11717891_a_at) / Fold change /veh ECM1 (11717891_a_at) / RFU IL23R (11748794_a_at) / Fold change /veh IL23R (11748794_a_at) / RFU TNFAIP8L3 (11732012_x_at) / Fold change /veh TNFAIP8L3 (11732012_x_at) / RFU MBOAT4 (11741988_at) / Fold change /veh MBOAT4 (11741988_at) / RFU 11764193_at / Fold change /veh 11764193_at / RFU TMEM53 (11763286_at) / Fold change /veh TMEM53 (11763286_at) / RFU MAGEB2 (11727129_at) / Fold change /veh MAGEB2 (11727129_at) / RFU TMEM200A (11744735_a_at) / Fold change /veh TMEM200A (11744735_a_at) / RFU CCDC152 (11751479_a_at) / Fold change /veh CCDC152 (11751479_a_at) / RFU FAM211A (11726209_a_at) / Fold change /veh FAM211A (11726209_a_at) / RFU RGS16 (11746705_a_at) / Fold change /veh RGS16 (11746705_a_at) / RFU VCAN (11755009_s_at) / Fold change /veh VCAN (11755009_s_at) / RFU RHOB (11743442_s_at) / Fold change /veh RHOB (11743442_s_at) / RFU RGS16 (11720943_a_at) / Fold change /veh RGS16 (11720943_a_at) / RFU RGS16 (11720944_at) / Fold change /veh RGS16 (11720944_at) / RFU, VPS4B / Fold change vs veh, VPS4B / RFU, CREB1 / Fold change vs veh, CREB1 / RFU, DNAJC13 / Fold change vs veh, DNAJC13 / RFU, GNAQ / Fold change vs veh, GNAQ / RFU, CDK5R1 / Fold change vs veh, CDK5R1 / RFU, ZRANB3 / Fold change vs veh, ZRANB3 / RFU, CUL4A / Fold change vs veh, CUL4A / RFU, CCNY / Fold change vs veh, CCNY / RFU, UFL1 / Fold change vs veh, UFL1 / RFU, COG3 / Fold change vs veh, COG3 / RFU, DIAPH2 / Fold change vs veh, DIAPH2 / RFU, SKA2 / Fold change vs veh, SKA2 / RFU, AFF3 / Fold change vs veh, AFF3 / RFU, LMF1 / Fold change vs veh, LMF1 / RFU, IPO11 / Fold change vs veh, IPO11 / RFU, DFFB / Fold change vs veh, DFFB / RFU, FOXP1 / Fold change vs veh, FOXP1 / RFU, CARD8 / Fold change vs veh, CARD8 / RFU, STRN3 / Fold change vs veh, STRN3 / RFU, ADK / Fold change vs veh, ADK / RFU, RASSF2 / Fold change vs veh, RASSF2 / RFU, WIPF1 / Fold change vs veh, WIPF1 / RFU, LARP1B / Fold change vs veh, LARP1B / RFU, RASA1 / Fold change vs veh, RASA1 / RFU, RB1 / Fold change vs veh, RB1 / RFU, PPFIA1 / Fold change vs veh, PPFIA1 / RFU, MAT2A / Fold change vs veh, MAT2A / RFU, CCT5 / Fold change vs veh, CCT5 / RFU, WDR92 / Fold change vs veh, WDR92 / RFU, CUX1 / Fold change vs veh, CUX1 / RFU, TTC7A / Fold change vs veh, TTC7A / RFU, TMEM135 / Fold change vs veh, TMEM135 / RFU, DEPTOR / Fold change vs veh, DEPTOR / RFU, CPM / Fold change vs veh, CPM / RFU, DNAJB6 / Fold change vs veh, DNAJB6 / RFU, CACNA2D3 / Fold change vs veh, CACNA2D3 / RFU, DTX4 / Fold change vs veh, DTX4 / RFU, TFCP2 / Fold change vs veh, TFCP2 / RFU, GMCL1 /// GMCL1P1 / Fold change vs veh, GMCL1 /// GMCL1P1 / RFU, AEBP2 / Fold change vs veh, AEBP2 / RFU, SNHG1 /// SNORD22 /// SNORD25 /// SNORD26 /// SNORD27 /// SNORD28 /// SNORD29 /// SNORD31 / Fold change vs veh, SNHG1 /// SNORD22 /// SNORD25 /// SNORD26 /// SNORD27 /// SNORD28 /// SNORD29 /// SNORD31 / Fold change (Aza/veh), C12orf56 (ProbeSet 11735607_a_at) / Fold change (ACY-1035/veh), C12orf56 (ProbeSet 11735607_a_at) / Fold change (Aza/veh), FGFR1OP (ProbeSet 11751329_s_at) / Fold change (ACY-1035/veh), FGFR1OP (ProbeSet 11751329_s_at) / Fold change (Aza/veh), VPS36 (ProbeSet 11739960_a_at) / Fold change (ACY-1035/veh), VPS36 (ProbeSet 11739960_a_at) / RFU SYPL1 (11715823_x_at) / Fold change /veh SYPL1 (11715823_x_at) / RFU IGFBP7 (11715501_s_at) / Fold change /veh IGFBP7 (11715501_s_at) / RFU REEP3 (11722064_at) / Fold change /veh REEP3 (11722064_at) / RFU IGLL1 (11728026_x_at) / Fold change /veh IGLL1 (11728026_x_at): dose or concentration left out as unconfirmed. Format: cell-based, human. To be noted: MV-4-11 cells, 48 hours.

Take `Nc1ccc(-c2cccs2)cc1NC(=O)c1ccc2c(c1)cc(C1CC1)n2CCN1CCOCC1` [ACY-1035]: the “Fold change /veh TMEM200A (11744735_a_at)” value stood at 1.19.
